This is an account of results in ChEMBL document CHEMBL1147709, “Arylanthranilodinitriles: a new biaryl class of antileishmanial agents” (2006).

What all share (assay type): functional
Assay [1] relates to Leishmania donovani. Nature of the assay: Antileishmanial activity against Leishmania donovani promastigotes at 8 ug/ml.
Assay [2] has as its system Leishmania donovani. Nature of the assay: Antileishmanial activity against Leishmania donovani amastigotes at 20 ug/ml.
Assay [3] relates to Leishmania donovani. Nature of the assay: Antileishmanial activity against Leishmania donovani promastigotes at 4 ug/ml.
Assay [4] deals with Leishmania donovani. Nature of the assay: Antileishmanial activity against Leishmania donovani promastigotes at 2 ug/ml.

Molecules are shown by their SMILES.

By inhibition is commonly meant the share of the control response that was lost under treatment. Lower therefore signals little suppression.

The compound `COc1ccc(-c2c(C)c(C#N)c(N)c(C#N)c2SC)cc1OC` had an inhibition at 8 µg/mL in the assay on Leishmania donovani [1] of 69%. Further, the inhibition at 20 µg/mL in the assay with Leishmania donovani [2] was determined as 53%. Moreover, in the assay with Leishmania donovani [3], testing at 4 µg/mL gave an inhibition of 60%.

Consider `CSc1c(C)c(-c2ccc(Cl)cc2)c(C#N)c(N)c1C#N`, for which the inhibition at 8 µg/mL in the assay on Leishmania donovani [1] is 50%. In the assay with Leishmania donovani [2], the inhibition at 20 µg/mL amounted to 10%. The compound further had an inhibition at 4 µg/mL with Leishmania donovani [3] of 46%.

The compound `CSc1c(C#N)c(N)c(C#N)c(C)c1-c1ccc(F)cc1` registered an inhibition at 8 µg/mL with Leishmania donovani [1] of 65%. For the same compound, the inhibition at 20 µg/mL in the assay with Leishmania donovani [2] amounted to 62%. 4 µg/mL produced 43% inhibition in the assay with Leishmania donovani [3].

As for `CSc1c(C)c(-c2ccccc2)c(C#N)c(N)c1C#N`, in the assay on Leishmania donovani [1], the inhibition at 8 µg/mL turned out to be 48%. For the same compound, the inhibition at 20 µg/mL in the assay with Leishmania donovani [2] worked out at 23%. Moreover, the inhibition at 4 µg/mL with Leishmania donovani [3] came out at 25%.

As to `CSc1c(C#N)c(N)c(C#N)c(C)c1-c1ccccc1F`, in the assay with Leishmania donovani [1], the inhibition at 8 µg/mL was 60%. In the assay on Leishmania donovani [2], 20 µg/mL produced 61% inhibition. Moreover, in the assay with Leishmania donovani [3], at 4 µg/mL the inhibition was 37%.

In the case of `COc1ccc(-c2c(C)c(C#N)c(N)c(C#N)c2SC)c(OC)c1`, the inhibition at 8 µg/mL in the assay on Leishmania donovani [1] was found to be 59%. In the assay with Leishmania donovani [2], this compound gave an inhibition at 20 µg/mL of 56%. For the same compound, in the assay on Leishmania donovani [3], 4 µg/mL produced 36% inhibition.

In the assay on Leishmania donovani [1], `COc1ccc(-c2c(C)c(SC)c(C#N)c(N)c2C#N)cc1` gave an inhibition at 8 µg/mL of 53%. In addition, at 20 µg/mL the inhibition with Leishmania donovani [2] was 25%. Further, the inhibition at 4 µg/mL in the assay on Leishmania donovani [3] stood at 31%.

`CSc1c(C#N)c(N)c(C#N)c(C)c1-c1ccc(C(F)(F)F)cc1` came in with an inhibition at 8 µg/mL with Leishmania donovani [1] of 83%. For the same compound, in the assay with Leishmania donovani [2], testing at 20 µg/mL gave an inhibition of 70%. In the assay with Leishmania donovani [3], this compound gave an inhibition at 4 µg/mL of 67%.

Compound `N=C(N)c1ccc(OCCCCCOc2ccc(C(=N)N)cc2)cc1` [PENTAMIDINE] came in with an inhibition at 2 µg/mL in the assay on Leishmania donovani [4] of 71%. Also, the inhibition at 20 µg/mL in the assay with Leishmania donovani [2] turned out to be 48%.
